In series [1] the test system is normal rats. Put plainly: Hemoglobin concentration and red blood cell count after repeated dosing. As to conditions: repeated oral administration for 14 days. It counts as in vivo, rat.
In series [2] the test system is UGT1A1, UGT1A7, UGT1A8 and UGT1A9. The experiment in a line: UGT isoforms generating the O-glucuronide (in vitro). It is filed as in vitro ADME, human.
The subject of series [3] is normal rat. Put plainly: Blood erythropoietin concentration increasing action. It counts as in vivo. As to conditions: single oral administration.
The target in series [4] is T1, CYP2C8 (Homo sapiens, UniProt P10632).
T1 sequence (P10632 1-490): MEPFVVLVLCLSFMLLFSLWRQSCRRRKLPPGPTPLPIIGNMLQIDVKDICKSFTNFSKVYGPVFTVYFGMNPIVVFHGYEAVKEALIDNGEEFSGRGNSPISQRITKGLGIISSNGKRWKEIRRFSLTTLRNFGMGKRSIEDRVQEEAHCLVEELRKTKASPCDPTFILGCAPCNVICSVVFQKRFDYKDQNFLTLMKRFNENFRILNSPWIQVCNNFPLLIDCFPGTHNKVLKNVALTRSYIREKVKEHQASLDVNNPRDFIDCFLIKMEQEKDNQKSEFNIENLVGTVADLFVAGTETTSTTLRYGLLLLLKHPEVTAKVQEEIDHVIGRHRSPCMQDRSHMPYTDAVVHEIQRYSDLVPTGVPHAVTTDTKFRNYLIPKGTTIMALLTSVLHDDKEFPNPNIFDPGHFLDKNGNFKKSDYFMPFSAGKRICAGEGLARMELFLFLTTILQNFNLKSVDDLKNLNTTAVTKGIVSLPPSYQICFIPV
Put plainly: Enzyme inhibition (in vitro). It counts as in vitro ADME.

Series [5] can be described thus: Phase I drug-drug interaction study with probenecid (Part 1, Arm 2). It counts as in vivo, human. Conditions: for AUC(0-inf) / AUC(0-t) / Cmax: both sexes, human, plasma, fasted. As for the experimental part:
(§1) A phase I, open-label, 2-part study was conducted in healthy male and female subjects to evaluate the potential for interaction of cyclosporine (Part 1, Arm 1), probenecid (Part 1, Arm 2), and rifampin (Part 2) with vadadustat.
On the morning of Day 1, subjects received a single oral dose of vadadustat (300 mg) as 2×150 mg tablets after at least a 10-hour overnight fast and remained fasted for at least 4 hours post-dose. Following a 2-day washout (Days 1 to 2), subjects received 1 oral probenecid 500 mg tablet Q12 h for 4 days (Days 3 to 6). On days that probenecid was administered alone (Days 3, 4, and 6), probenecid was administered in a fasted state 1 hour prior to a standard breakfast and 1 hour prior to an evening meal or snack. On Day 5, probenecid was co-administered with a single dose of vadadustat (300 mg as 2×150 mg tablets) following at least a 10-hour fast. Subjects remained fasted for at least 4 hours after dosing.
On days vadadustat was administered (Day 1 and Day 5), blood samples for PK analysis were collected up to 48 hours postdose. In addition, on vadadustat dosing days, pooled urine samples were collected up to 24 hours post-dose. Subjects were discharged from the CRU on the morning of Day 7, after the final 48-hour post-dose PK sample had been collected. A follow-up phone call was conducted 30 days±2 days after the final dose.

A short description of series [6]: Phase I drug-drug interaction study with cyclosporine (Part 1, Arm 1). As to conditions: for AUC(0-inf) / AUC(0-t) / Cmax: both sexes, human, plasma, fasted. It is filed as in vivo, human. As for the experimental part:
as §1
Subjects were randomized in a 1:1 ratio to 1 of 2 dosing sequences (A:B or B:A) to receive vadadustat 300 mg alone and vadadustat 300 mg in combination with oral cyclosporine 500 mg in a crossover design. Study drugs were administered in the morning after at least a 10-hour overnight fast. Subjects remained fasted for at least 4 hours post-dose. • Treatment A: a single oral dose of vadadustat (300 mg) administered as 2×150 mg tablets. • Treatment B: a single oral dose of vadadustat (300 mg) administered as 2×150 mg tablets co-administered with a single oral dose of cyclosporine (500 mg) administered as 5×100 mg capsules.
On the morning of Day 1, subjects received the first treatment (A or B). Following a 7-day washout, subjects crossed over to Period 2 to receive the second treatment of the dosing sequence (A or B) on Day 8.
On each dosing day (Day 1 and Day 8) blood samples for PK analysis were collected up to 48 hours post-dose. Subjects were discharged from the clinical research unit (CRU) on the morning of Day 10, after the final 48-hour post-dose PK sample had been collected. A follow-up phone call was conducted 30 days±2 days after the final dose.

Series [7] addresses CYP2C9 (Homo sapiens, UniProt P11712). The experiment in a line: Enzyme inhibition (in vitro). It is filed as in vitro ADME.
Series [8] deals with T2, CYP2B6 (Homo sapiens, UniProt P20813).
T2 sequence (P20813 1-491): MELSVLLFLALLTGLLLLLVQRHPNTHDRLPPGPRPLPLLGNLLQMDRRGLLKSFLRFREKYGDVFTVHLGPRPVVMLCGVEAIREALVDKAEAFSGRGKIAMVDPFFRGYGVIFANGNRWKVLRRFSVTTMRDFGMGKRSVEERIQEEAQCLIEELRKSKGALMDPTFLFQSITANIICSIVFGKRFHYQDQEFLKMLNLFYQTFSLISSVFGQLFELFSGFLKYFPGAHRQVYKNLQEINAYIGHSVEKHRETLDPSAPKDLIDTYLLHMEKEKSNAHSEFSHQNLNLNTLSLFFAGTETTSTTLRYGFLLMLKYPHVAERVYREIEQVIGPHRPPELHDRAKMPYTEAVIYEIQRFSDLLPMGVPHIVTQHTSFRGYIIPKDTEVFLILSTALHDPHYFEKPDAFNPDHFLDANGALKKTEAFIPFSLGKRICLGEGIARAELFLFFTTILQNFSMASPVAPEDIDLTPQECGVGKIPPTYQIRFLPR
Put plainly: Enzyme inhibition (in vitro). It counts as in vitro ADME.

[9] abbreviates: vadadustat 300 mg alone, single oral dose, read-out: AUCinf, geometric LSM, Treatment V.
[10] abbreviates: vadadustat 300 mg alone, single oral dose, read-out: AUClast, geometric LSM, Treatment V.
Setting [11] is: vadadustat 300 mg alone, single oral dose, read-out: Cmax, geometric LSM, Treatment V.

The Cmax is the maximum level reached in the sampled fluid or tissue.

CYP2C9, sequence (P11712 whole entry): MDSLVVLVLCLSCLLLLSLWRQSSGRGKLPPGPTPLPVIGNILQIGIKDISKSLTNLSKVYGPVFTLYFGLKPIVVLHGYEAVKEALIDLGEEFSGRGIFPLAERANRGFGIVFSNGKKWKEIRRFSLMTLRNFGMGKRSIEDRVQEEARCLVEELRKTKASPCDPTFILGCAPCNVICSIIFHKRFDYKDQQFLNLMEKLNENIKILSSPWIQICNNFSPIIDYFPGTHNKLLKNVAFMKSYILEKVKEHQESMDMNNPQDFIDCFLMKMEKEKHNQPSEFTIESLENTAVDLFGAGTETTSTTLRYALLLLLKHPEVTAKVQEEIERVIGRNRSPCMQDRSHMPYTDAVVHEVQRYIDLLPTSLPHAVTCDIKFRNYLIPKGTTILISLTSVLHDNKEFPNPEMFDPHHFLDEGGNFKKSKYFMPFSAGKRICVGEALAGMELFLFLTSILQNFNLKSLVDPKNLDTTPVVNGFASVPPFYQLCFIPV

Consider `O=C(O)CNC(=O)c1ncc(-c2cccc(Cl)c2)cc1O` [Compound 1, {[5-(3-chlorophenyl)-3-hydroxypyridine-2-carbonyl]amino}acetic acid], for which the hemoglobin concentration result in series [1] is given as “increasing”. Moreover, in series [1], the “red blood cell count” value is “increasing”. Also, the “UGT isoforms involved in the generation of the O-glucuronide” value in series [2] was “UGT1A1, UGT1A7, UGT1A8 and UGT1A9”. For the same compound, in series [3], the blood erythropoietin levels result is “elevated blood erythropoietin levels”. Besides, the “inhibitory effect on CYP2C8” value in series [4] is “inhibitory effect”. Moreover, the AUC(0-inf) in series [5] (oral, vadadustat 300 mg single dose + probenecid 500 mg Q12h (multiple doses), read-out: AUCinf, geometric LSM, Treatment V + P) turned out to be 427 µg·h/mL; in series [5] (setting [9]), 234 µg·h/mL; in series [6] (vadadustat 300 mg + cyclosporine 500 mg, single oral doses, read-out: AUCinf, geometric LSM, Treatment V + C), 293 µg·h/mL; in series [6] (setting [9]), 251 µg·h/mL. Moreover, the AUC(0-t) in series [5] (oral, vadadustat 300 mg single dose + probenecid 500 mg Q12h (multiple doses), read-out: AUClast, geometric LSM, Treatment V + P) is 417 µg·h/mL; in series [5] (setting [10]) it was 233 µg·h/mL; in series [6] (vadadustat 300 mg + cyclosporine 500 mg, single oral doses, read-out: AUClast, geometric LSM, Treatment V + C), 292 µg·h/mL; in series [6] (setting [10]), 249 µg·h/mL. Besides, the Cmax was 48800 ng/mL in series [5] (oral, vadadustat 300 mg single dose + probenecid 500 mg Q12h (multiple doses), read-out: Cmax, geometric LSM, Treatment V + P); 47500 ng/mL in series [5] (setting [11]); 37100 ng/mL in series [6] (vadadustat 300 mg + cyclosporine 500 mg, single oral doses, read-out: Cmax, geometric LSM, Treatment V + C); 45400 ng/mL in series [6] (setting [11]). Further, the tolerability entry in series [5] (during treatment with probenecid, healthy subjects) is given as “tolerated”; in series [6] (during treatment with cyclosporine, healthy subjects) it was “tolerated”. Further, the “change of Cmax values” in series [5] (in combination with probenecid) is “relatively unchanged”. The urinary excretion entry in series [5] (in combination with probenecid) is “decreased”. In series [6] (vadadustat in combination with cyclosporine), the “changes in the Cmax and AUC values” is recorded as “no clinically relevant changes”. In addition, in series [7], the “inhibitory effect on CYP2C9” value was “inhibitory effect”. Besides, the “inhibitory effect on CYP2B6” value in series [8] is reported as “inhibitory effect”.

Source of the values: patent US20240148707A1, “MODULATION OF DRUG-DRUG INTERACTIONS OF VADADUSTAT” (Akebia Therapeutics, Inc., priority 2021, published 2024).
